Data on 19 compounds can be found in patent publication US20250230226A1, “PLXDC1/PLXDC2 ACTIVATORS AND THEIR USE IN THE TREATMENT OF BLOOD VESSEL DISORDERS” (THE REGENTS OF THE UNIVERSITY OF CALIFORNIA, priority 2019, published 2025).

Assay [1] has as its system CT26.CL25 colon cancer tumor endothelial cells. Put plainly: Colon CT26 ex vivo model of tumor angiogenesis. It counts as cell-based, mouse. The following applies: for cytotoxicity at 10 µM / cytotoxicity at 40 µM / cytotoxicity at 20 µM: Mus musculus, Endothelial cell, 48 h, read-out: Cell death. The method, then: An ex vivo tumor angiogenesis model was developed to test the efficacy of anti-cancer candidate agents. The following protocol describes the Ex Vivo Tumor Angiogenesis Model.
• 1. The day before the experiment, all necessary tools were sprayed with 70% ethanol and sterilized under UV light overnight, including blade, dissecting and micro-dissecting scissors and […]. 24-well dishes were placed at 4° C. to pre-chill plates and Matrigel was thawed, 24 hours before tumor dissection. • 2. 70% ethanol was sprayed on working bench. Two sterile petri dishes were prepared with 10 ml sterile PBS. The following steps 3 and 4 are necessary for mouse tumor models. For fresh human tumor, steps 3 and 4 are skipped. • 3. The tumor-bearing mice were euthanized. 70% ethanol was sprayed on the mouse and the tumor was removed using sterilized dissecting tools (avoid the fur). The tumor was rinsed in petri dish with sterile PBS to remove ethanol and fur. The tumor was transferred to a new petri dish with PBS for dissection. The dish is placed on ice. • 4. Pre-chilled sterile pipet tips were used to seed regular Matrigel in 24 well plates on ice. Matrigel (30 μl) was dropped in the middle of each well without touching the edge of the well (avoid introducing bubbles if possible). • 5. The tumor was cut in halves using the sterile blade. Healthy tumor tissue that is not necrotic and is within the tumor capsule was identified and isolated. The healthy tumor tissue was cut into small pieces. For instance, a suitable size for the tumor tissue is 0.5 mm (H)×0.5 mm (L)×0.3 mm (D) with a total volume of 0.075 mm^3. • 6. Each tumor piece was gently transferred and embedded in the Matrigel drop in the 24-well plate. The embedded piece was placed in the bottom and middle of each Matrigel drop. The plate was kept on ice all the time. • 7. After seeding the tumor pieces, plates were incubated in a 37° C. cell culture incubator without medium for 10 minutes in order for the Matrigel to solidify. • 8. Endothelial Growth Medium (0.5 ml) was added to each well and incubated at 37° C. with 5% CO2. Treatment was not added until the new endothelial cells was grown out of the tumor or were larger than 3 mm in diameter. This usually takes 4 days for the LL2 Lewis lung cancer model and 7 days for the CT26 colon cancer model. For human tumor models, the growth time is typically 2-3 weeks, depending on the tumor type. Media was changed every 4 days during prolonged culture. Typically, when the tumor tissue grows to 2 mm in diameter, it was good for drug testing. A size of about 3 mm in diameter can make visualization easier. • 9. When the assay was ready to be analyzed for cell death (e.g., 48 hours after drug addition), the dye mixture was prepared by mixing 6 μl of green dye to stain live cells (5 mg/ml Fluorescein diacetate or FDA in DMSO) with 30 μl of red dye (2.5 mg/ml Propidium iodide or PI in PBS) to stain dead cells in an Eppendorf tube. The FDA dye needs to be stored frozen in a −20° C. freezer because it has a labile ester bond. • 10. 1 μl of the dye mixture was added to each well of the 24-well dish. It is usually preferred to do one 24-well dish at a time given the amount of time needed to take pictures (the green dye is not as stable in the cells in the long term). • 11. The dish was gently rocked a few times to mix the dye with the media in the wells and incubate the dish at 37° C. for 10 min (too long incubation can make the green signal too intense). • 12. Each well was washed with 0.5 ml of sterile PBS and then 0.5 ml of phenol red free SFM was added to each well. Alternatively 0.5 ml of regular Endothelial Cell Growth Media can be added to each well if this well needs to be continuously maintained after the experiment. • 13. An inverted microscope using the 2× objective lens was used to observe morphological changes in the experimental wells. • 14. […]

In assay [2] the test system is LL/2 lung cancer tumor endothelial cells. Kind of assay: Lung LL2 ex vivo model of tumor angiogenesis. It counts as cell-based, mouse. To be noted: for 48 hrs (morphology observations): LL/2 tumor endothelial cells; for Cell death: drug treatment for two days, ratio of red area to total endothelial cell area; for cytotoxicity at 40 µM / cytotoxicity at 20 µM: Mus musculus, Endothelial cell, 48 h, read-out: Cell death. The essentials:
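Live/dead imaging with FDA and PI, taken e.g. 48 h post-drug under fixed channel settings, measures treatment effects on endothelial cells sprouting from Lewis lung tumor explants. Explants were seeded in Matrigel drops and grown ~4 days in endothelial growth medium, 37 °C, 5% CO2, before dosing.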

As for `CCCCCCCOc1ccc(S(=O)(=O)c2cnc3ccc([S+](C)[O-])cc3c2N2CCC(N3CCCC(O)C3)CC2)cc1` (centres unmarked) [Compound 254], in assay [1] (Conc. 10 μm), the “48 hrs (morphology observations after 48 hours)” value is “** (more than 50% but less than 100% of endothelial cells vesicularize in cell shape)”. Moreover, the cytotoxicity at 10 µM in assay [1] stood at 40%. Besides, in assay [2] (20 μm), the “48 hrs (morphology observations)” value is reported as “*** (more than 50% but less than 100% of endothelial cells vesicularize in cell shape)” and the Cell death was found to be 100%.

For `CCc1ccc(S(=O)(=O)c2cnc3ccc(OC)cc3c2-n2cncn2)cc1` [Compound 79], the “48 hrs (morphology observations after 48 hours)” value in assay [1] (Conc. 10 μm) is on record as “*** (100% of endothelial cells vesicularize in cell shape)”. The cytotoxicity at 10 µM in assay [1] is 100%. Further, the Cell death in assay [2] (20 μm) is listed as 20%.

In the case of `CCCCCCCOc1ccc(S(=O)(=O)c2cnc3ccc([S+](C)[O-])cc3c2N2CCC(N3CCN(C)CC3)CC2)cc1` (centres unmarked) [Compound 253], in assay [1] (Conc. 10 μm), the “48 hrs (morphology observations after 48 hours)” value was “*** (100% of endothelial cells vesicularize in cell shape)”. Moreover, the cytotoxicity at 10 µM in assay [1] stood at 80%. For the same compound, in assay [2] (20 μm), the “48 hrs (morphology observations)” value is “**** (100% of endothelial cells vesicularize in cell shape and look flattened in morphology (indicating disintegration of the cell body))”; the Cell death turned out to be 100%.

On to `CCc1ccc(S(=O)(=O)c2cnc3ccc(OC(F)(F)F)cc3c2N2CCC(CO)CC2)cc1` [Compound 48], for which the “48 hrs (morphology observations after 48 hours)” value in assay [1] (Conc. 40 μm) was 0. The cytotoxicity at 40 µM in assay [1] was determined as 10%. Further, the Cell death in assay [2] (40 μm) is 60%.

With `CCCCOc1ccc(S(=O)(=O)c2cnc3ccc([S+](C)[O-])cc3c2N2CCCN(CCN3CCCC3)CC2)cc1` (centres unmarked) [Compound 210], in assay [1] (Conc. 40 μm), the “48 hrs (morphology observations after 48 hours)” value was “*** (100% of endothelial cells vesicularize in cell shape)”. The cytotoxicity at 40 µM in assay [1] is 70%. Also, in assay [2] (40 μm), the “48 hrs (morphology observations)” value was found to be 0 and the Cell death was found to be 50%.

Turning to `CCCCOc1ccc(S(=O)(=O)c2cnc3ccc(OC(F)(F)F)cc3c2N2CCC(N3CCC(O)CC3)CC2)cc1` [Compound 152], the “48 hrs (morphology observations after 48 hours)” value in assay [1] (Conc. 40 μm) is listed as “** (more than 50% but less than 100% of endothelial cells vesicularize in cell shape)”. Moreover, the cytotoxicity at 40 µM in assay [1] came out at 30%. In assay [2] (20 μm), the “48 hrs (morphology observations)” value was “* (50% or less of cells vesicularize in cell shape)” and the Cell death is recorded as 20%.

As for `CCCCOc1ccc2ncc(S(=O)(=O)c3ccc(OC)c(OC)c3)c(N3CCC(N4CCCCC4)CC3)c2c1` [Compound 116], the “48 hrs (morphology observations after 48 hours)” value in assay [1] (Conc. 20 μm) is given as “* (50% or less of cells vesicularize in cell shape)”. Besides, the cytotoxicity at 20 µM in assay [1] came to 50%. In assay [2] (20 μm), the “48 hrs (morphology observations)” value is “*** (more than 50% but less than 100% of endothelial cells vesicularize in cell shape)” and the Cell death was 100%.

`COc1ccc(S(=O)(=O)c2cnc3ccc(OC(F)(F)F)cc3c2NCCO)cc1OC` [Compound 69]: the “48 hrs (morphology observations after 48 hours)” value in assay [1] (Conc. 40 μm) amounted to 0. For the same compound, the cytotoxicity at 40 µM came out at 0% in assay [1] and 20% in assay [2]. Besides, the “48 hrs (morphology observations)” value in assay [2] (40 μm) was found to be 0.

In the case of `COc1ccc(S(=O)(=O)c2cnc3ccc(SC)cc3c2N2CCC(N3CCCCC3)CC2)cc1OC` [Compound 121], the “48 hrs (morphology observations after 48 hours)” value in assay [1] (Conc. 40 μm) is recorded as “*** (100% of endothelial cells vesicularize in cell shape)”. Moreover, the cytotoxicity at 40 µM in assay [1] came out at 40%. The Cell death in assay [2] (40 μm) came out at 50%.

For `CCOC(=O)c1ccc2ncc(S(=O)(=O)c3ccc(OC)cc3)c(N(CCO)CCO)c2c1` [Compound 156], the “48 hrs (morphology observations after 48 hours)” value in assay [1] (Conc. 40 μm) is reported as 0. Besides, the results for the cytotoxicity at 40 µM in assay [1] and in assay [2] were 0% and 30%, respectively.

For `O=S(=O)(c1ccc(OC(F)(F)F)cc1)c1cnc2ccc(OC(F)(F)F)cc2c1-n1cncn1` [Compound 91], the “48 hrs (morphology observations after 48 hours)” value in assay [1] (Conc. 10 μm) was “*** (100% of endothelial cells vesicularize in cell shape)”. In addition, in assay [1], the cytotoxicity at 10 µM worked out at 100%. The “48 hrs (morphology observations)” value in assay [2] (20 μm) is “*** (more than 50% but less than 100% of endothelial cells vesicularize in cell shape)”. Also, the cytotoxicity at 20 µM in assay [2] is 80%.

On to `CCCCOc1ccc(S(=O)(=O)c2cnc3ccc(OC(F)(F)F)cc3c2-n2cncn2)cc1` [Compound 93], for which the “48 hrs (morphology observations after 48 hours)” value in assay [1] (Conc. 10 μm) is recorded as “*** (100% of endothelial cells vesicularize in cell shape)”. In addition, the cytotoxicity at 10 µM in assay [1] stood at 100%. The “48 hrs (morphology observations)” value in assay [2] (20 μm) is reported as “*** (more than 50% but less than 100% of endothelial cells vesicularize in cell shape)”. In addition, in assay [2], the cytotoxicity at 20 µM was 100%.

Take `CCCCOc1ccc(S(=O)(=O)c2cnc3ccc(SC)cc3c2N2CCC(N3CCCCC3)CC2)cc1` [Compound 159]: the “48 hrs (morphology observations after 48 hours)” value in assay [1] (Conc. 40 μm) is “**** (100% of endothelial cells vesicularize in cell shape and look flattened in morphology (indicating disintegration of the cell body))”. For the same compound, the cytotoxicity at 40 µM in assay [1] and in assay [2] was 100% in each case. Further, the “48 hrs (morphology observations)” value in assay [2] (40 μm) is “**** (100% of endothelial cells vesicularize in cell shape and look flattened in morphology (indicating disintegration of the cell body))”.

On to `CCc1ccc(S(=O)(=O)c2cnc3ccc(OC(F)(F)F)cc3c2N2CCC(N3CCC(O)CC3)CC2)cc1` [Compound 102], for which the “48 hrs (morphology observations after 48 hours)” value in assay [1] (Conc. 40 μm) is 0. The cytotoxicity at 40 µM in assay [1] was 5%. Besides, the “48 hrs (morphology observations)” value in assay [2] (20 μm) was 0. Further, the cytotoxicity at 20 µM in assay [2] is 20%.

For the compound `CCCCOc1ccc(S(=O)(=O)c2cnc3ccc([S+](C)[O-])cc3c2N2CCC(N3CCC(O)(c4ccccc4)CC3)CC2)cc1` (centres unmarked) [Compound 238], the “48 hrs (morphology observations after 48 hours)” value in assay [1] (Conc. 10 μm) is 0. Further, the cytotoxicity at 10 µM in assay [1] came out at 10%. Also, in assay [2] (40 μm), the “48 hrs (morphology observations)” value is on record as “*** (more than 50% but less than 100% of endothelial cells vesicularize in cell shape)”.

Turning to `CCCCCCCOc1ccc(S(=O)(=O)c2cnc3ccc([S+](C)[O-])cc3c2N2CCN(C)CC2)cc1` (centres unmarked) [Compound 259], the “48 hrs (morphology observations after 48 hours)” value in assay [1] (Conc. 20 μm) is “*** (100% of endothelial cells vesicularize in cell shape)”. Further, in assay [1], the cytotoxicity at 20 µM is 100%. In addition, in assay [2] (20 μm), the “48 hrs (morphology observations)” value was “*** (more than 50% but less than 100% of endothelial cells vesicularize in cell shape)” and the Cell death is reported as 95%.

For `CCCCCCCOc1ccc(S(=O)(=O)c2cnc3ccc([S+](C)[O-])cc3c2N2CCC(N3CCC(N4CCCCC4)CC3)CC2)cc1` (centres unmarked) [Compound 258], the “48 hrs (morphology observations after 48 hours)” value in assay [1] (Conc. 10 μm) is listed as “*** (100% of endothelial cells vesicularize in cell shape)”. The cytotoxicity at 10 µM in assay [1] amounted to 100%. Also, the “48 hrs (morphology observations)” value in assay [2] (20 μm) is “**** (100% of endothelial cells vesicularize in cell shape and look flattened in morphology (indicating disintegration of the cell body))”. The cytotoxicity at 20 µM in assay [2] turned out to be 100%.

As to `COc1ccc(S(=O)(=O)c2cnc3ccc(OC(F)(F)F)cc3c2N2CCCN(C)CC2)cc1OC` [Compound 57], the “48 hrs (morphology observations after 48 hours)” value in assay [1] (Conc. 40 μm) is “* (50% or less of cells vesicularize in cell shape)”. For the same compound, the cytotoxicity at 40 µM in assay [1] is 60%. In assay [2] (40 μm), the “48 hrs (morphology observations)” value was determined as 0 and the Cell death came to 40%.

`CCCCN(CCCC)c1c(S(=O)(=O)c2ccc(OC)cc2)cnc2ccc(C(=O)OCC)cc12` [Compound 155]: the “48 hrs (morphology observations after 48 hours)” value in assay [1] (Conc. 40 μm) is reported as “*** (100% of endothelial cells vesicularize in cell shape)”. Also, the cytotoxicity at 40 µM was found to be 20% in assay [1] and 80% in assay [2]. Also, the “48 hrs (morphology observations)” value in assay [2] (40 μm) is reported as “*** (more than 50% but less than 100% of endothelial cells vesicularize in cell shape)”.
